The values that follow come from PubChem BioAssay AID1259407 (Chemical Carcinogenesis Research Information System (CCRIS), 2018).

In this data set the test system is CCRIS mutagenicity, Ames/micronucleus/aberration tests. The data set is described as follows: CCRIS mutagenicity studies.
The mark [1] stands for this setting: Test System: AMES SALMONELLA TYPHIMURIUM, Strain/Indicator: TA98, Metabolic Activation: S-9, Method: STANDARD PLATE.
Setting [2] is: Test System: AMES SALMONELLA TYPHIMURIUM, Strain/Indicator: TA100, Metabolic Activation: NONE, Method: STANDARD PLATE.
The mark [3] stands for this setting: Test System: AMES SALMONELLA TYPHIMURIUM, Strain/Indicator: TA100, Metabolic Activation: S-9, Method: STANDARD PLATE.
Where [4] appears, read: Test System: AMES SALMONELLA TYPHIMURIUM, Strain/Indicator: TA98, Metabolic Activation: NONE, Method: STANDARD PLATE.

SMILES strings stand for the structures. Calls of active or inactive are those of the source. No rule for the calls is given here.

In the case of `Cc1ccc(C(C)(C)C)cc1`, the mutagenic call was “inactive; negative” (Test System: AMES SALMONELLA TYPHIMURIUM, Strain/Indicator: TA98, Metabolic Activation: HAMSTER, LIVER, S-9, AROCLOR 1254 (10%), Method: PREINCUBATION); “inactive; negative” (Test System: AMES SALMONELLA TYPHIMURIUM, Strain/Indicator: TA98, Metabolic Activation: NONE, Method: PREINCUBATION); “inactive; negative” (Test System: AMES SALMONELLA TYPHIMURIUM, Strain/Indicator: TA98, Metabolic Activation: RAT, LIVER, S-9, AROCLOR 1254 (10%), Method: PREINCUBATION); “inactive; negative” (Test System: AMES SALMONELLA TYPHIMURIUM, Strain/Indicator: TA100, Metabolic Activation: HAMSTER, LIVER, S-9, AROCLOR 1254 (10%), Method: PREINCUBATION); “inactive; negative” (Test System: AMES SALMONELLA TYPHIMURIUM, Strain/Indicator: TA100, Metabolic Activation: NONE, Method: PREINCUBATION); “inactive; negative” (Test System: AMES SALMONELLA TYPHIMURIUM, Strain/Indicator: TA100, Metabolic Activation: RAT, LIVER, S-9, AROCLOR 1254 (10%), Method: PREINCUBATION). Further, the mutagenic call (Test System: AMES SALMONELLA TYPHIMURIUM, Strain/Indicator: TA1535, Metabolic Activation: HAMSTER, LIVER, S-9, AROCLOR 1254 (10%), Method: PREINCUBATION) is “inactive; negative”; the mutagenic call (Test System: AMES SALMONELLA TYPHIMURIUM, Strain/Indicator: TA1535, Metabolic Activation: NONE, Method: PREINCUBATION) is “inactive; negative”; the mutagenic call (Test System: AMES SALMONELLA TYPHIMURIUM, Strain/Indicator: TA1535, Metabolic Activation: RAT, LIVER, S-9, AROCLOR 1254 (10%), Method: PREINCUBATION) is “inactive; negative”; the mutagenic call (Test System: AMES SALMONELLA TYPHIMURIUM, Strain/Indicator: TA1537, Metabolic Activation: HAMSTER, LIVER, S-9, AROCLOR 1254 (10%), Method: PREINCUBATION) is “inactive; negative”; the mutagenic call (Test System: AMES SALMONELLA TYPHIMURIUM, Strain/Indicator: TA1537, Metabolic Activation: NONE, Method: PREINCUBATION) is “inactive; negative”; the mutagenic call (Test System: AMES SALMONELLA TYPHIMURIUM, Strain/Indicator: TA1537, Metabolic Activation: RAT, LIVER, S-9, AROCLOR 1254 (10%), Method: PREINCUBATION) is “inactive; negative”.

For the compound `COc1cc(Oc2ccc(Cl)cc2Cl)ccc1[N+](=O)[O-]`, the mutagenic call is “inactive; negative” under setting [1]; “active; positive” under setting [2]; “inactive; negative” under setting [3]; “inactive; negative” (Test System: AMES SALMONELLA TYPHIMURIUM, Strain/Indicator: TA100, Metabolic Activation: S-9 MIX, Method: STANDARD PLATE); “active; positive” (Test System: AMES SALMONELLA TYPHIMURIUM, Strain/Indicator: YG1021, Metabolic Activation: NONE, Method: PREINCUBATION); “active; positive” (Test System: AMES SALMONELLA TYPHIMURIUM, Strain/Indicator: YG1021, Metabolic Activation: RAT, LIVER, S-9, PCB, Method: PREINCUBATION). Further, the mutagenic call is “inactive; negative” (Test System: AMES SALMONELLA TYPHIMURIUM, Strain/Indicator: YG1021, Metabolic Activation: S-9, Method: STANDARD PLATE); “inactive; negative” (Test System: AMES SALMONELLA TYPHIMURIUM, Strain/Indicator: YG1024, Metabolic Activation: S-9, Method: STANDARD PLATE); “active; positive” (Test System: AMES SALMONELLA TYPHIMURIUM, Strain/Indicator: YG1026, Metabolic Activation: NONE, Method: PREINCUBATION); “active; positive” (Test System: AMES SALMONELLA TYPHIMURIUM, Strain/Indicator: YG1026, Metabolic Activation: RAT, LIVER, S-9, PCB, Method: PREINCUBATION); “inactive; negative” (Test System: AMES SALMONELLA TYPHIMURIUM, Strain/Indicator: YG1026, Metabolic Activation: S-9, Method: STANDARD PLATE); “inactive; negative” (Test System: AMES SALMONELLA TYPHIMURIUM, Strain/Indicator: YG1029, Metabolic Activation: S-9, Method: STANDARD PLATE).

Consider `COc1cccc(/C=C/c2ccc([N+](=O)[O-])cc2)c1`, for which the mutagenic call (Test System: AMES SALMONELLA TYPHIMURIUM, Strain/Indicator: TA98(NR), Metabolic Activation: NONE, Method: STANDARD PLATE) is “active; positive”; the mutagenic call (Test System: AMES SALMONELLA TYPHIMURIUM, Strain/Indicator: TA98(NR), Metabolic Activation: S-9, Method: STANDARD PLATE) is “active; positive”; the mutagenic call under setting [4] is “active; positive”; the mutagenic call under setting [1] is “active; positive”; the mutagenic call (Test System: AMES SALMONELLA TYPHIMURIUM, Strain/Indicator: TA100 (NR), Metabolic Activation: NONE, Method: STANDARD PLATE) was “active; positive”; the mutagenic call (Test System: AMES SALMONELLA TYPHIMURIUM, Strain/Indicator: TA100 (NR), Metabolic Activation: S-9, Method: STANDARD PLATE) was “active; positive”. Also, the mutagenic call by setting is: under setting [2], “active; positive”; under setting [3], “active; positive”.

On to `[Pb]`, for which the mutagenic call reads like this: (End Point: IN VIVO MICRONUCLEUS, Test System: PERIPHERAL BLOOD LYMPHOCYTES, Species: HUMAN, Strain/Sex: MALE, Route: PROBABLY INHALATION, Method: 72 HR CONTINUOUS TREATMENT) “active; positive”; under setting [4], “inactive; negative”; (Test System: AMES SALMONELLA TYPHIMURIUM, Strain/Indicator: TA98, Metabolic Activation: RAT, LIVER, S-9, PHENOBARBITAL, Method: STANDARD PLATE) “inactive; negative”; (Test System: AMES SALMONELLA TYPHIMURIUM, Strain/Indicator: TA102, Metabolic Activation: NONE, Method: STANDARD PLATE) “active; positive”; (Test System: AMES SALMONELLA TYPHIMURIUM, Strain/Indicator: TA102, Metabolic Activation: RAT, LIVER, S-9, PHENOBARBITAL, Method: STANDARD PLATE) “inactive; negative”; (Test System: AMES SALMONELLA TYPHIMURIUM, Strain/Indicator: TA1535, Metabolic Activation: NONE, Method: STANDARD PLATE) “inactive; negative”. Also, the mutagenic call runs as follows: (Test System: AMES SALMONELLA TYPHIMURIUM, Strain/Indicator: TA1535, Metabolic Activation: RAT, LIVER, S-9, PHENOBARBITAL, Method: STANDARD PLATE) “inactive; negative”; (Test System: AMES SALMONELLA TYPHIMURIUM, Strain/Indicator: TA1537, Metabolic Activation: NONE, Method: STANDARD PLATE) “inactive; negative”; (Test System: AMES SALMONELLA TYPHIMURIUM, Strain/Indicator: TA1537, Metabolic Activation: RAT, LIVER, S-9, PHENOBARBITAL, Method: STANDARD PLATE) “inactive; negative”.
